Measurements as given in ChEMBL document CHEMBL1250537, “Synthesis and biological evaluation of diastereoisomerically pure N,O-nucleosides” (Bioorg Med Chem, 2010).

Columns and labels:
Assay type in all cases: functional, cell-based
JIYOYE = assay: Cytotoxicity against human EBV-positive Jijoye cells after 72 hrs by MTT assay
[1] = Cytotoxicity against human LCL cells after 72 hrs by MTT assay
Jurkat = assay: Cytotoxicity against human Jurkat cells after 72 hrs by MTT assay

Compound | IC50 (JIYOYE) [µM] | IC50 [1] [µM] | IC50 (Jurkat) [µM]
Cc1cn([C@@H]2C[C@H](c3ccccc3)N(C(C)(C)C)O2)c(=O)[nH]c1=O (relative stereo) | 68.8 | 87.1 | 72.2
CN1O[C@@H](n2ccc(N)nc2=O)C[C@H]1c1ccccc1 (relative stereo) | > 100 | > 100 | > 100
Cc1cn([C@@H]2C[C@H](c3ccccc3)N(C)O2)c(=O)[nH]c1=O (relative stereo) | 60.9 | 82.5 | 76.6
Cc1cn([C@@H]2C[C@H](c3ccccc3Cl)N(C)O2)c(=O)[nH]c1=O (relative stereo) | 28.5 | 52.6 | 8.8
Cc1cn([C@@H]2C[C@H](c3ccco3)N(C(C)(C)C)O2)c(=O)[nH]c1=O (relative stereo) | > 100 | > 100 | > 100
CC(C)(C)N1O[C@H](n2cc(F)c(=O)[nH]c2=O)C[C@@H]1c1ccccc1 (relative stereo) | 63.1 | 67.5 | 60.6
CN1O[C@@H](n2ccc(N)nc2=O)C[C@@H]1c1ccccc1 (relative stereo) | > 100 | > 100 | > 100
Cc1cn([C@@H]2C[C@H](c3ccccc3)N(Cc3ccccc3)O2)c(=O)[nH]c1=O (relative stereo) | 36.9 | 55.2 | 19.3
